What was measured:
intact cardiac myocytes = experiment: Spontaneous Ca2+ waves (SCW) in intact cardiac myocytes; format: cell-based, rat
Experimental: Intact cardiomyocytes were loaded with Fluo-4 AM (5 μmol/L, Molecular Probes) for 15 min in NT solution (in mM): NaCl 140, KCl 4, MgCl2 1, CaCl2 2, glucose 10, HEPES 5, pH 7.4. Fluo-4 AM was excited at 488 nm and emission was recorded using a 500-530 nm bandpass filter. Ca^2+sparks were recorded after field stimulation at 1 Hz, and caffeine (10mmol/L) was rapidly perfused for assessing the SR Ca^2+content. Both Ca^2+sparks and SR Ca^2+content were recorded by using a laser scanning confocal microscope (RADIANCE2000™ MP, Bio-Rad, UK). Data were analyzed using SparkMaster, an automated analysis program that allows rapid and reliable spark analysis (Picht et al., J. Am J Physiol Cell Physiol. 2007;293:C1073-C1081). Spontaneous Ca^2+waves were recorded using a BZ9000 fluorescence digital microscope (Keyence, Japan), after 10 sec from field electric stimulation at 1,2,3,4 and 5 Hz, as described previously (Fukuda et al., Biochem Biophys Res Commun. 2014;448:1-7).

[1] = system: intracellular reactive oxygen species (ROS); experiment: Intracellular ROS by H2DCFDA fluorescence; format: cell-based, rat; conditions: 50 μmol/L H2O2, with or without dantrolene pretreatment
Experimental: Intracellular reactive oxygen species (ROS) formation was measured in rat cardiac myocytes using a fluorescent probe, 5-(and -6)-chloromethyl-2′,7′-dichlorodihydrofluoroscein diacetate (H2DCFDA, 10 μmol/L) (Terentyev et al., Circ Res. 2008; 103:1466-1472). This assay is widely used as a reliable method for the measurement of intracellular ROS such as hydrogen peroxide, hydroxyl radicals, and hydroperoxide. The H2DCFDA dye was excited with the 488 nm and emission was collected at 500-530 nm. The content of free thiols in RyR2 was determined based on the monobromobimane (mBB, Calbiochem) fluorescence intensity, as previously described (Terentyev et al., Circ Res. 2008; 103:1466-1472; Ho et al., J Physiol. 2011; 19:4697-4708). In brief, myocytes were incubated with mBB for 1 hr. Myocytes were then lysed in lysis buffer and loaded on 6% SDS-PAGE gels. The fluorescence emission intensity of the RyR2-bound mBB was measured at 482 nm by exciting at 382 nm. mBB fluorescence was normalized to the RyR2 amount, which was determined using quantitative densitometry of Coomassie Blue-stained gels.
To monitor intracellular ROS level, we used H2DCFDA (10 μmol/L). […] To assess whether dantrolene can attenuate the extent of RyR2 thiol modification in H2O2-treated myocytes, we used a monobromobimane (mBB) fluorescence labeling assay.

O=C1CN(/N=C/c2ccc(-c3ccc([N+](=O)[O-])cc3)o2)C(O)=N1 [dantrolene]
effect on H2O2-induced increase in frequency of SCW (intact cardiac myocytes; dantrolene added before H2O2): suppressed | intracellular ROS level [1]: does not alter

OO [H2O2, hydrogen peroxide]
occurrence of SCW vs. control (intact cardiac myocytes; pacing rate increased from 1 to 5 Hz): significantly increased | intracellular ROS level [1]: increased

Source: patent US10281476B2, “Methods to identify modulators of RyR calcium channels” (REGENTS OF THE UNIVERSITY OF MINNESOTA, priority 2013, dated 2019)
